Laboratory results as given in patent publication US10588317B2, “Isoxazoline-substituted benzamides and analogues as insecticides” (priority 2015, dated 2020).
Where two headings read alike, the source gives them in different places.

Experiments:
Type in all cases: in vivo
Diabrotica balteata = Diabrotica balteata (corn root worm), sprayed maize sprouts; conditions: 96 h, application rate 200 ppm, L2 larvae, 4 days after infestation, read-out: effect in at least one of the two categories (mortality or growth inhibition)
Description: Maize sprouts placed onto an agar layer in 24-well microtiter plates were treated with aqueous test solutions prepared from 10'000 ppm DMSO stock solutions by spraying. After drying, the plates were infested with L2 larvae (6 to 10 per well). The samples were assessed for mortality and growth inhibition in comparison to untreated samples 4 days after infestation.
(§1) The following compounds gave an effect of at least 80% in at least one of the two categories (mortality or growth inhibition) at an application rate of 200 ppm: […]

Euschistus heros = Euschistus heros (neotropical brown stink bug), sprayed soybean leaves; conditions: 120 h, application rate 200 ppm, N2 nymphs, 5 days after infestation, read-out: effect in at least one of the two categories (mortality or growth inhibition)
Description: Soybean leaves on agar in 24-well microtiter plates were sprayed with aqueous test solutions prepared from 10'000 ppm DMSO stock solutions. After drying the leaves were infested with N2 nymphs. The samples were assessed for mortality and growth inhibition in comparison to untreated samples 5 days after infestation.
as §1

Plutella xylostella = Plutella xylostella (diamond back moth), artificial diet; conditions: 120 h, read-out: effect in at least one of the two categories (mortality or growth inhibition); for percent effect (mortality or growth inhibition) at 200 ppm: application rate 200 ppm, L2 larvae, 5 days after infestation
Description: 24-well microtiter plates with artificial diet were treated with aqueous test solutions prepared from 10'000 ppm DMSO stock solutions by pipetting. After drying, the plates were infested with L2 larvae (10 to 15 per well). The samples were assessed for mortality and growth inhibition in comparison to untreated samples 5 days after infestation.
as §1

Spodoptera littoralis = Spodoptera littoralis (Egyptian cotton leaf worm), sprayed cotton leaf discs; conditions: foliar, 72 h, read-out: control (mortality, anti-feeding effect, growth inhibition)
Description: Cotton leaf discs were placed onto agar in 24-well microtiter plates and sprayed with aqueous test solutions prepared from 10'000 ppm DMSO stock solutions. After drying the leaf discs were infested with five L1 larvae. The samples were assessed for mortality, anti-feeding effect, and growth inhibition in comparison to untreated samples 3 days after infestation. Control of Spodoptera littoralis by a test sample is given when at least one of the categories mortality, anti-feedant effect, and growth inhibition is higher than the untreated sample.

Tetranychus urticae = Tetranychus urticae (two-spotted spider mite): feeding/contact activity; conditions: 192 h, application rate 200 ppm, mixed population (mobile stages), 8 days after infestation, read-out: mortality
Description: Bean leaf discs on agar in 24-well microtiter plates were sprayed with aqueous test solutions prepared from 10'000 ppm DMSO stock solutions. After drying the leaf discs were infested with a mite population of mixed ages. The samples were assessed for mortality on mixed population (mobile stages) 8 days after infestation.

Thrips tabaci = Thrips tabaci (onion thrips): feeding/contact activity; conditions: 144 h
Description: Sunflower leaf discs were placed on agar in 24-well microtiter plates and sprayed with aqueous test solutions prepared from 10'000 ppm DMSO stock solutions. After drying the leaf discs were infested with a Thrips population of mixed ages. The samples were assessed for mortality 6 days after infestation.

[1] = application rate 200 ppm, L1 larvae, 3 days after infestation
[2] = application rate 200 ppm, Thrips population of mixed ages, 6 days after infestation, read-out: mortality

Cc1cc(C2=NO[C@@](c3cc(Cl)c(F)c(Cl)c3)(C(F)(F)F)C2)ccc1C(=O)N[C@@H]1CON(S(=O)(=O)CC(=O)NO)C1 [Compound A203, 4-[(5S)-5-(3,5-dichloro-4-fluorophenyl)-5-(trifluoromethyl)-4H-1,2-oxazol-3-yl]-N-[(4S)-2-[2-(hydroxyamino)-2-oxoethyl]sulfonyl-1,2-oxazolidin-4-yl]-2-methylbenzamide]
≥ 80%: percent effect (mortality or growth inhibition) at 200 ppm (Diabrotica balteata) | percent effect (mortality or growth inhibition) at 200 ppm (Euschistus heros) | percent effect (mortality or growth inhibition) at 200 ppm (Plutella xylostella) | mortality at 200 ppm (Spodoptera littoralis; [1]) | mortality at 200 ppm (Tetranychus urticae) | mortality at 200 ppm (Thrips tabaci; [2])

Cc1cc(C2=NO[C@@](c3cc(Cl)c(Cl)c(Cl)c3)(C(F)(F)F)C2)ccc1C(=O)NC1CON(S(C)(=O)=O)C1 (stereo partly drawn) [Compound A26, 2-methyl-N-(2-methylsulfonylisoxazolidin-4-yl)-4-[(5S)-5-(3,4,5-trichlorophenyl)-5-(trifluoromethyl)-4H-isoxazol-3-yl]benzamide]
≥ 80%: percent effect (mortality or growth inhibition) at 200 ppm (Euschistus heros)

CS(=O)(=O)N1CC(NC(=O)c2ccc(C3=NOC(c4cc(Cl)cc(Cl)c4)(C(F)(F)F)C3)c3ccccc23)CO1 (stereo not shown) [Compound A46]
≥ 80%: percent effect (mortality or growth inhibition) at 200 ppm (Diabrotica balteata) | percent effect (mortality or growth inhibition) at 200 ppm (Euschistus heros) | percent effect (mortality or growth inhibition) at 200 ppm (Plutella xylostella) | mortality at 200 ppm (Spodoptera littoralis; [1]) | mortality at 200 ppm (Tetranychus urticae) | mortality at 200 ppm (Thrips tabaci; [2])

Cc1cc(C2=NO[C@](c3cc(Cl)cc(Cl)c3)(C(F)(F)F)C2)ccc1C(=O)N[C@H]1CON(S(=O)(=O)CCBr)C1 [Compound A177, N-[(4R)-2-(2-bromoethylsulfonyl)-1,2-oxazolidin-4-yl]-4-[(5R)-5-(3,5-dichlorophenyl)-5-(trifluoromethyl)-4H-1,2-oxazol-3-yl]-2-methylbenzamide]
≥ 80%: percent control (mortality or growth inhibition) at 200 ppm (Plutella xylostella) | mortality at 200 ppm (Spodoptera littoralis) | mortality at 200 ppm (Thrips tabaci)

Cc1cc(C2=NO[C@@](c3ccc(C(F)(F)F)c(F)c3)(C(F)(F)F)C2)ccc1C(=O)N[C@H]1CON(S(C)(=O)=O)C1 [Compound A170]
≥ 80%: percent effect (mortality or growth inhibition) at 200 ppm (Diabrotica balteata) | percent effect (mortality or growth inhibition) at 200 ppm (Plutella xylostella) | mortality at 200 ppm (Spodoptera littoralis; [1]) | mortality at 200 ppm (Tetranychus urticae) | mortality at 200 ppm (Thrips tabaci; [2])

CS(=O)(=O)N1CC(NC(=O)c2ccc(C3=NOC(c4cc(Cl)cc(Cl)c4)(C(F)(F)F)C3)cn2)CO1 (stereo not shown) [Compound A238]
≥ 80%: mortality at 200 ppm (Spodoptera littoralis; [1])

CS(=O)(=O)N1CC(NC(=O)c2cnc(C3=NOC(c4cc(Cl)cc(Cl)c4)(C(F)(F)F)C3)c3ccccc23)CO1 (stereo not shown) [Compound A239]
≥ 80%: percent effect (mortality or growth inhibition) at 200 ppm (Diabrotica balteata) | percent effect (mortality or growth inhibition) at 200 ppm (Euschistus heros) | percent effect (mortality or growth inhibition) at 200 ppm (Plutella xylostella) | mortality at 200 ppm (Spodoptera littoralis; [1]) | mortality at 200 ppm (Thrips tabaci; [2])

Cc1cc(C2=NOC(c3ccnc(F)c3)(C(F)(F)F)C2)ccc1C(=O)NC1CON(S(C)(=O)=O)C1 (stereo not shown) [Compound A54]
≥ 80%: percent effect (mortality or growth inhibition) at 200 ppm (Diabrotica balteata) | percent effect (mortality or growth inhibition) at 200 ppm (Euschistus heros) | percent effect (mortality or growth inhibition) at 200 ppm (Plutella xylostella) | mortality at 200 ppm (Spodoptera littoralis; [1]) | mortality at 200 ppm (Tetranychus urticae)

C=CS(=O)(=O)N1C[C@H](NC(=O)c2ccc(C3=NO[C@@](c4cc(Cl)cc(Cl)c4)(C(F)(F)F)C3)cc2C)CO1 [Compound A175]
≥ 80%: mortality at 200 ppm (Spodoptera littoralis; [1])

Cc1cc(C2=NOC(c3ccc(OC(F)(F)F)cc3)(C(F)(F)F)C2)ccc1C(=O)NC1CON(S(C)(=O)=O)C1 (stereo not shown) [Compound A53]
≥ 80%: percent effect (mortality or growth inhibition) at 200 ppm (Diabrotica balteata) | percent effect (mortality or growth inhibition) at 200 ppm (Plutella xylostella) | mortality at 200 ppm (Spodoptera littoralis; [1]) | mortality at 200 ppm (Tetranychus urticae)

Cc1cc(C2=NOC(c3cc(C(F)(F)F)ccn3)(C(F)(F)F)C2)ccc1C(=O)N[C@H]1CON(S(C)(=O)=O)C1 (stereo partly shown) [Compound A222]
≥ 80%: percent effect (mortality or growth inhibition) at 200 ppm (Diabrotica balteata) | percent effect (mortality or growth inhibition) at 200 ppm (Plutella xylostella) | mortality at 200 ppm (Spodoptera littoralis; [1]) | mortality at 200 ppm (Tetranychus urticae)

CS(=O)(=O)N1CC(NC(=O)c2ccc(C3=NOC(c4cc(Cl)cc(Cl)c4)(C(F)(F)F)C3)cc2C#N)CO1 (stereo not shown) [Compound A47]
≥ 80%: mortality at 200 ppm (Spodoptera littoralis; [1])

CNS(=O)(=O)N1C[C@H](NC(=O)c2ccc(C3=NO[C@@](c4ccc(C(F)(F)F)c(F)c4)(C(F)(F)F)C3)cc2C)CO1 [Compound A182]
≥ 80%: percent effect (mortality or growth inhibition) at 200 ppm (Diabrotica balteata) | percent effect (mortality or growth inhibition) at 200 ppm (Plutella xylostella) | mortality at 200 ppm (Spodoptera littoralis; [1]) | mortality at 200 ppm (Tetranychus urticae) | mortality at 200 ppm (Thrips tabaci; [2])

Cc1nc(C2=NOC(c3cc(Cl)cc(Cl)c3)(C(F)(F)F)C2)ccc1C(=O)NC1CON(S(C)(=O)=O)C1 (stereo not shown) [Compound A237]
≥ 80%: percent effect (mortality or growth inhibition) at 200 ppm (Diabrotica balteata) | percent effect (mortality or growth inhibition) at 200 ppm (Plutella xylostella) | mortality at 200 ppm (Spodoptera littoralis; [1])

Cc1cc(Cl)cc(C2(C(F)(F)F)CC(c3ccc(C(=O)NC4CON(S(C)(=O)=O)C4)c(C)c3)=NO2)c1 (stereo not shown) [Compound A51]
≥ 80%: percent effect (mortality or growth inhibition) at 200 ppm (Diabrotica balteata) | percent effect (mortality or growth inhibition) at 200 ppm (Plutella xylostella) | mortality at 200 ppm (Spodoptera littoralis; [1]) | mortality at 200 ppm (Tetranychus urticae) | mortality at 200 ppm (Thrips tabaci; [2])

Cc1cc(C2=NOC(c3ccc(Br)cc3)(C(F)(F)F)C2)ccc1C(=O)NC1CON(S(C)(=O)=O)C1 (stereo not shown) [Compound A55]
≥ 80%: percent effect (mortality or growth inhibition) at 200 ppm (Diabrotica balteata) | percent effect (mortality or growth inhibition) at 200 ppm (Plutella xylostella) | mortality at 200 ppm (Spodoptera littoralis; [1]) | mortality at 200 ppm (Tetranychus urticae) | mortality at 200 ppm (Thrips tabaci; [2])

C=CS(=O)(=O)N1C[C@@H](NC(=O)c2ccc(C3=NO[C@@](c4cc(Cl)c(F)c(Cl)c4)(C(F)(F)F)C3)cc2C)CO1 [Compound A193, 4-[(5S)-5-(3,5-dichloro-4-fluorophenyl)-5-(trifluoromethyl)-4H-1,2-oxazol-3-yl]-N-[(4R)-2-ethenylsulfonyl-1,2-oxazolidin-4-yl]-2-methylbenzamide]
≥ 80%: percent effect (mortality or growth inhibition) at 200 ppm (Plutella xylostella) | mortality at 200 ppm (Spodoptera littoralis; [1]) | mortality at 200 ppm (Tetranychus urticae) | mortality at 200 ppm (Thrips tabaci; [2])

CNC(=O)CS(=O)(=O)N1C[C@H](NC(=O)c2ccc(C3=NO[C@@](c4cc(Cl)cc(Cl)c4)(C(F)(F)F)C3)cc2C)CO1 [Compound A201]
≥ 80%: percent effect (mortality or growth inhibition) at 200 ppm (Diabrotica balteata) | percent effect (mortality or growth inhibition) at 200 ppm (Euschistus heros) | percent effect (mortality or growth inhibition) at 200 ppm (Plutella xylostella) | mortality at 200 ppm (Spodoptera littoralis; [1]) | mortality at 200 ppm (Tetranychus urticae)

CS(=O)(=O)N1CC(NC(=O)c2ccc(C3=NOC(c4cc(Cl)cc(Cl)c4)(C(F)(F)F)C3)c3ncccc23)CO1 (stereo not shown) [Compound A56]
≥ 80%: percent effect (mortality or growth inhibition) at 200 ppm (Plutella xylostella) | mortality at 200 ppm (Spodoptera littoralis; [1])

Cc1cc(C2=NO[C@](c3ccc(C(F)(F)F)c(F)c3)(C(F)(F)F)C2)ccc1C(=O)N[C@@H]1CON(S(=O)(=O)N(C)C)C1 [Compound A171]
≥ 80%: percent effect (mortality or growth inhibition) at 200 ppm (Diabrotica balteata) | percent effect (mortality or growth inhibition) at 200 ppm (Plutella xylostella) | mortality at 200 ppm (Spodoptera littoralis; [1]) | mortality at 200 ppm (Tetranychus urticae) | mortality at 200 ppm (Thrips tabaci; [2])
